# In ChEMBL document CHEMBL1155896, “2-Amino-6-furan-2-yl-4-substituted nicotinonitriles as A2A adenosine receptor antagonists” (J Med Chem, 2008):
# Tests used:
# Adenosine receptor A2a [1] = biological target: T1, Adenosine receptor A2a (Homo sapiens, UniProt P29274)
# Description: Binding affinity to human adenosine A2A receptor
# Adenosine receptor A2a [2] = biological target: T1, Adenosine receptor A2a; assay: Displacement of [3H]ZM241385 from human adenosine A2A receptor expressed in HEK293 cell membrane at 1 uM; assay type: cell membranes
# [3] = biological target: T2, Adenosine receptor A2b (Homo sapiens) (UniProt P29275); assay: Displacement of [3H]MRS1754 from human adenosine A2B receptor expressed in CHO cell membrane at 1 uM; assay type: cell membranes
# T2 sequence (whole entry): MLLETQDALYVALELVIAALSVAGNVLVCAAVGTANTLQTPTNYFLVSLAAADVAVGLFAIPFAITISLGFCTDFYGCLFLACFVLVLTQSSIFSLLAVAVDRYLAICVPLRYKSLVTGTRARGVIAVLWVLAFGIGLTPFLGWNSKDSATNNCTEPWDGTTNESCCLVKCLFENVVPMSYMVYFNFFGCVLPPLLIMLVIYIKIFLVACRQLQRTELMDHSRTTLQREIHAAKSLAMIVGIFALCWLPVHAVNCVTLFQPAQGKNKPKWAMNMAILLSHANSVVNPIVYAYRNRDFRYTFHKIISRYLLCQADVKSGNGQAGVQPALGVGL
# [4] = biological target: T3, Adenosine receptor A3 (Homo sapiens) (UniProt P0DMS8); assay: Displacement of [3H]AB-MECA from human adenosine A3 receptor expressed in HEK293 cell membrane at 1 uM; assay type: cell membranes
# T3 sequence (whole entry): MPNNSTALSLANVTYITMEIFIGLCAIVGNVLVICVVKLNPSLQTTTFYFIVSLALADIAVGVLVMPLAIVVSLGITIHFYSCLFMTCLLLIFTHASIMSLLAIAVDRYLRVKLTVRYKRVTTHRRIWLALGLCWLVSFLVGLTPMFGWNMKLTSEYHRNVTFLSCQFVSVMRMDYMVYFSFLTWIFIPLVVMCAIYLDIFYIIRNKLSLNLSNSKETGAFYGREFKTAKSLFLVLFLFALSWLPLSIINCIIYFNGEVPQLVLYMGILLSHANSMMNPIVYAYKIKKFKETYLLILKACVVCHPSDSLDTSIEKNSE
# Adenosine receptor A1 = biological target: T4, Adenosine receptor A1 (Homo sapiens, UniProt P30542); assay: biochemical
# T4 sequence (P30542 whole entry): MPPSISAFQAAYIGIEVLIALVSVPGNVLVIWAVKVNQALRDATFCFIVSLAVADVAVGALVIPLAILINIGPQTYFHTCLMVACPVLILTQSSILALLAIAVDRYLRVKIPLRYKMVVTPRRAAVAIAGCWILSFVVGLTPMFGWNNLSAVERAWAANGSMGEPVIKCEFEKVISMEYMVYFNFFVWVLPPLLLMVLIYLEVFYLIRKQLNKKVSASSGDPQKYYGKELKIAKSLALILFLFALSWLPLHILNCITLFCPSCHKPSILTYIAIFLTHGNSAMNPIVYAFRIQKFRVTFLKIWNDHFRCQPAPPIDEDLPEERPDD
# Adenosine receptor A2a [5] = biological target: T1, Adenosine receptor A2a; assay: biochemical
# [6] = biological target: T5, Adenosine receptor A1 (Homo sapiens) (UniProt P30542); assay: Displacement of [3H]DPCPX from human adenosine A1 receptor expressed in CHO cell membrane at 1 uM; assay type: cell membranes
# T5 sequence (whole entry): T4 sequence (P30542 whole entry)
# Adenosine receptor A3 = biological target: T6, Adenosine receptor A3 (Homo sapiens, UniProt P0DMS8); assay: biochemical
# T6 sequence (P0DMS8 whole entry): T3 sequence (whole entry)
# Adenosine receptor A2b = biological target: T7, Adenosine receptor A2b (Homo sapiens, UniProt P29275); assay: Displacement of [3H]MRS1754 from human adenosine A2B receptor expressed in CHO cell membrane; assay type: cell membranes
# T7 sequence (P29275 whole entry): T2 sequence (whole entry)
# Adenosine receptor A2a [7] = biological target: T1, Adenosine receptor A2a; assay: Displacement of [3H]ZM241385 from human adenosine A2A receptor expressed in HEK293 cell membrane
# T1 sequence (P29274 whole entry): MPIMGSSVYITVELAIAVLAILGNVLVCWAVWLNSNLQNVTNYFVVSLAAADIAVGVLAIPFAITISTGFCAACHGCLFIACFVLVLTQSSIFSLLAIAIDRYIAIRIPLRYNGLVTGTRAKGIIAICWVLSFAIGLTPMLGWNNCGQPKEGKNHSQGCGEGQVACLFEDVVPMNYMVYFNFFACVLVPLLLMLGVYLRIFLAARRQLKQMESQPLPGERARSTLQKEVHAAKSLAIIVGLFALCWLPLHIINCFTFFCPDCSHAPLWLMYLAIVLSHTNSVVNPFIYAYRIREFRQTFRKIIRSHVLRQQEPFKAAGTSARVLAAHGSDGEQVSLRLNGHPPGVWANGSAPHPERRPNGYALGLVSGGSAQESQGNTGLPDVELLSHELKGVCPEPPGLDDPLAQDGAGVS
Compound,Activity [3] [%],Activity [4] [%],Ki (Adenosine receptor A1) [nM],Ki (Adenosine receptor A2a [5]) [nM],further results
Nc1nc(-c2ccco2)c2ncn(C(=O)NCc3ccccc3)c2n1,–,–,–,–,Ki (Adenosine receptor A2a [1]): 1.1 nM
N#Cc1c(-c2ccc3c(c2)OCO3)cc(-c2ccccc2)nc1N,0,48,7,–,Activity (Adenosine receptor A2a [2]): 34%
N#Cc1c(-c2cccs2)cc(-c2ccccc2)nc1N,44,11,22,54,–
N#Cc1c(-c2cccs2)cc(-c2cccs2)nc1N,19,31,43,32,–
N#Cc1c(-c2ccccc2)cc(-c2ccc[nH]2)nc1N,35,0,–,640,Activity [6]: 28%
N#Cc1c(-c2ccc3c(c2)OCO3)cc(-c2ccco2)nc1N,24,–,11,26,Ki (Adenosine receptor A3): 390 nM
COc1ccc(-c2cc(-c3ccco3)nc(N)c2C#N)cc1,33,21,–,–,–
Cc1ccc(-c2cc(-c3ccco3)nc(N)c2C#N)o1,–,24,100,15,Ki (Adenosine receptor A2b): 440 nM
CC(C)(C)OC(=O)N1CCN(c2cccc(-c3cc4nc(-c5ccco5)nn4c(N)n3)c2)CC1,–,–,–,–,Ki (Adenosine receptor A2a [1]): 0.5 nM
N#Cc1c(-c2ccco2)cc(-c2ccco2)nc1N,–,33,12,1,Ki (Adenosine receptor A2b): 34 nM
OC[C@H]1O[C@@H](n2cnc3c(NC4CCCC4)ncnc32)[C@H](O)[C@@H]1O [N6-CYCLOPENTYLADENOSINE],–,–,–,1700,–
CC(C)Oc1ccc(-c2cc(-c3ccco3)nc(N)c2C#N)cc1,8,7,–,–,Activity [6]: 19%; Activity (Adenosine receptor A2a [2]): 6%
N#Cc1c(-c2ccc(Cl)c(Cl)c2)cc(-c2ccco2)nc1N,12,14,68,190,–
CN(C)c1ccc(-c2cc(-c3ccccc3)nc(N)c2C#N)cc1,4,2,–,–,Activity [6]: 12%; Activity (Adenosine receptor A2a [2]): 1%
CC(C)c1ccc2c(c1)-c1nc(N)nc(-c3ccc(Br)o3)c1C2,–,–,–,–,Ki (Adenosine receptor A2a [1]): 0.8 nM
Nc1nc(N2CCN3C[C@@H](COc4cccc(F)c4)CC[C@H]3C2)nc2nc(-c3ccco3)nn12,–,–,–,–,Ki (Adenosine receptor A2a [1]): 0.2 nM
N#Cc1c(-c2ccc(-c3ccccc3)cc2)cc(-c2ccco2)nc1N,17,4,–,–,Activity [6]: 0%; Activity (Adenosine receptor A2a [2]): 0%
Cc1cccc(-c2cc(-c3ccccc3)nc(N)c2C#N)c1,37,33,15,130,–
COc1ccc(-c2cc(-c3ccccc3)nc(N)c2C#N)cc1OC,13,32,66,160,–
Nc1nc2c(cnn2CCc2ccc(S(=O)(=O)N(CCO)CCO)cc2)c2nc(-c3ccco3)nn12,–,–,–,–,Ki (Adenosine receptor A2a [1]): 0.12 nM

Compound,Activity [3] [%],Activity [4] [%],Ki (Adenosine receptor A1) [nM],Ki (Adenosine receptor A2a [5]) [nM],further results
N#Cc1c(-c2cccc(OC(F)(F)F)c2)cc(-c2ccco2)nc1N,29,13,270,–,Activity (Adenosine receptor A2a [7]): 260 nM
CN(C)c1ccc(-c2cc(-c3ccco3)nc(N)c2C#N)cc1,2,17,–,–,Activity [6]: 11%; Activity (Adenosine receptor A2a [2]): 3.8%
N#Cc1c(-c2ccc(O)cc2)cc(-c2ccccc2)nc1N,18,18,61,–,Activity (Adenosine receptor A2a [2]): 17%
N#Cc1c(-c2ccccc2)cc(-c2cccs2)nc1N,41,32,12,88,–
N#Cc1c(-c2ccc(O)cc2)cc(-c2ccco2)nc1N,–,34,54,41,Ki (Adenosine receptor A2b): 370 nM
Nc1nc(CN[C@H]2CCCN2Cc2ccnc(Cl)c2)nc2nc(-c3ccco3)nn12,–,–,–,–,Ki (Adenosine receptor A2a [1]): 4 nM
COc1ccc(-c2cc(-c3ccco3)nc(N)c2C#N)cc1OC,31,20,250,92,–
CC(O)(C#Cc1cn2nc(-c3ccco3)nc2c(N)n1)Cc1ccncc1 (centres undefined),–,–,–,–,Ki (Adenosine receptor A2a [1]): 1.1 nM
Cc1ccc(-c2cc(-c3ccco3)nc(N)c2C#N)cc1,15,21,–,–,Activity [6]: 47%; Activity (Adenosine receptor A2a [2]): 45%
COc1ccccc1-c1cc2nc(-c3ccco3)nn2c(N)n1,–,–,–,–,Ki (Adenosine receptor A2a [1]): 4.3 nM
N#Cc1c(-c2ccccc2)cc(-c2ccccc2)nc1N,26,53,14,130,–
N#Cc1c(-c2cccs2)cc(-c2ccco2)nc1N,–,51,28,1.4,Ki (Adenosine receptor A2b): 75 nM
N#Cc1c(-c2ccc(Cl)cc2)cc(-c2ccco2)nc1N,33,21,48,140,–
Cc1cccc(-c2cc(-c3ccco3)nc(N)c2C#N)c1,–,18,64,140,Ki (Adenosine receptor A2b): 620 nM
N#Cc1c(-c2ccco2)cc(-c2ccccc2)nc1N,–,29,5.8,19,Ki (Adenosine receptor A2b): 220 nM
N#Cc1c(-c2ccccc2)cc(-c2ccco2)nc1N,–,28,28,11,Ki (Adenosine receptor A2b): 170 nM
N#Cc1c(-c2cccc(OC(F)(F)F)c2)cc(-c2ccccc2)nc1N,7,28,34,58,–
N#Cc1c(-c2ccco2)cc(-c2cccs2)nc1N,–,39,29,12,Ki (Adenosine receptor A2b): 380 nM
Nc1nc(C(=O)NCCc2ccc(O)cc2)cn2nc(-c3ccco3)nc12,–,–,–,–,Ki (Adenosine receptor A2a [1]): 1 nM
